# Source: US8927590B2, “Synthesis of pyrrolidine compounds” (Zealand Pharma A/S, priority 2006, dated 2015)
# Where two headings read alike, the source gives them in different places.
# Assay: Dynamic vapor sorption (DVS) at a series of relative humidity conditions
# Assay type: physicochemical
# Experimental: In some embodiments, the (2S,4R)-1-(2-aminoacetyl)-4-benzamidopyrrolidine-2-carboxylic acid hydrochloride monohydrate is characterized by dynamic vapor sorption (“DVS”). DVS data were collected using Dynamix Vapor Sorption Apparatus (DVS-1) made by Surface Measurement System Ltd. Samples were analyzed by subjecting them to a series of relative humidity (RH) conditions at 25° C. The relative humidity was scanned from about 0% to about 90%.
SMILES,stability of the solid form to changes in humidity (DVS conclusion),"increase in mass when relative humidity increased from 0% RH to 90% RH (DVS, 25° C., first cycle, 0 to about 1200 min (FIG. 7)) [%]","reversible change of mass between 0% RH and 10% RH (DVS, 25° C., 0% RH to 10% RH (FIG. 6))","mass between 10% RH and about 70% RH (DVS, 25° C., 10% RH to about 70% RH (FIG. 6))","stability of the solid form to changes in humidity (DVS conclusion) (DVS, 25° C., RH cycled about 0% to about 90%)","reversible mass change between about 70% RH and 90% RH (DVS, 25° C., about 70% RH to 90% RH (FIG. 6)) [%]"
"Cl.NCC(=O)N1C[C@H](NC(=O)c2ccccc2)C[C@H]1C(=O)O [(2S,4R)-1-(2-Aminoacetyl)-4-benzamidopyrrolidine-2-carboxylic acid hydrochloride]",not stable to environmental changes in humidity,21.7,,,,
"Cl.NCC(=O)N1C[C@H](NC(=O)c2ccccc2)C[C@H]1C(=O)O.O [(2S,4R)-1-(2-aminoacetyl)-4-benzamidopyrrolidine-2-carboxylic acid hydrochloride monohydrate]",,,about 1.5%,relatively stable mass,sorbed water is reversibly lost and does not appear to adversely affect the integrity of the crystalline form,~2.5
